The EC50 is the concentration at which the effect is half-maximal. Lower therefore signals greater potency.

Where only a bound is given, the exact number is not on record here.

The values below come from ChEMBL document CHEMBL1145308 (Bioorg Med Chem Lett, 2006).

Test [1] deals with T1, Sodium- and chloride-dependent glycine transporter 1 (Homo sapiens, UniProt P48067).
T1 sequence (P48067 whole entry): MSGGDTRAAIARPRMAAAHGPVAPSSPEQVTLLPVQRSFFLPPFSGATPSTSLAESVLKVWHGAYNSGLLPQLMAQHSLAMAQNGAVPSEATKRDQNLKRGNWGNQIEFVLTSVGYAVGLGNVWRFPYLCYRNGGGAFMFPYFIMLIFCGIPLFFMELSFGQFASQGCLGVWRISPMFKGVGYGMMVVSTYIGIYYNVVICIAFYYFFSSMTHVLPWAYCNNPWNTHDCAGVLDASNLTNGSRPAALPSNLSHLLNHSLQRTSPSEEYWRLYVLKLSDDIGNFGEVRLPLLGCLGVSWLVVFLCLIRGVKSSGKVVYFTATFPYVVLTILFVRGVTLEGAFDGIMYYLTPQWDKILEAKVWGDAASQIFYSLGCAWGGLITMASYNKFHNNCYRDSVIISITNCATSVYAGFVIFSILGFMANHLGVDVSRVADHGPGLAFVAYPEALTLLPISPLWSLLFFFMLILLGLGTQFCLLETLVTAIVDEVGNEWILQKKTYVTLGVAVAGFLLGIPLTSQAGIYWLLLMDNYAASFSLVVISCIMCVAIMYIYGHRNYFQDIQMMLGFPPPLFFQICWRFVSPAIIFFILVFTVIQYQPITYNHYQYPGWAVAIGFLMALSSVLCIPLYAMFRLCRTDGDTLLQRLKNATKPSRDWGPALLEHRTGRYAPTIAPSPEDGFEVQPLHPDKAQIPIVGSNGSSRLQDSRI
In words: Inhibition of [3H]glycine uptake at GlyT1.

Test [2] has as its target T2, Sodium- and chloride-dependent glycine transporter 2 (Homo sapiens, UniProt Q9Y345).
T2 sequence (Q9Y345 whole entry): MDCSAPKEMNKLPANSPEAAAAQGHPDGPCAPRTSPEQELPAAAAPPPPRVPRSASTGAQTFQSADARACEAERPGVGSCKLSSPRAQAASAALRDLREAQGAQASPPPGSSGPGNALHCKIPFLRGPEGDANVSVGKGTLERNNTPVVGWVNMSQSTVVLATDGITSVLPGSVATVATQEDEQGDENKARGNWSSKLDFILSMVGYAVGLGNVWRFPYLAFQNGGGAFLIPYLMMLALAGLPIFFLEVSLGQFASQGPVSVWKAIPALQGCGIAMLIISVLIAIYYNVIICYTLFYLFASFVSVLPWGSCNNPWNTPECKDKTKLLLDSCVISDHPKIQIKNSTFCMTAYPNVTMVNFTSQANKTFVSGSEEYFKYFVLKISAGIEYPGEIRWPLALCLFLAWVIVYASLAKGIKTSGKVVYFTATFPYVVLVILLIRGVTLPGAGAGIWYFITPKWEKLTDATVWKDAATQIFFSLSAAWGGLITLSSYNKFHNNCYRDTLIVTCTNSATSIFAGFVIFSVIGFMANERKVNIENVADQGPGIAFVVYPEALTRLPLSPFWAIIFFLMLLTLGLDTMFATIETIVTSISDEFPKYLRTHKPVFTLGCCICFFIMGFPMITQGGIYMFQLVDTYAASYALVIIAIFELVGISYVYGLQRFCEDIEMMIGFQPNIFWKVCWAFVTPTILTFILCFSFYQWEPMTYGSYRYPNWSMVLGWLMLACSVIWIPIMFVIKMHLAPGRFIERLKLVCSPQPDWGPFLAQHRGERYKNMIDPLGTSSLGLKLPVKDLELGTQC
In words: Inhibition of [3H]glycine uptake at GlyT2.

`CC(C)C1(N2CCC3(CC2)C(=O)NCC3c2ccccc2)CCCCC1` (racemic) registered an EC50 in test [1] of 970 nM.
Turning to `O=C1NCC(c2ccc(F)cc2)C12CCN(C1(c3cccc(F)c3)CCCCC1)CC2` (racemic), the EC50 in test [1] was 393 nM; in test [2], over 30000 nM.
Turning to `O=C1NCC(c2ccccc2)C12CCN(C1(c3ccccc3)CCOCC1)CC2` (stereo in doubt; form 2), the EC50 in test [1] is over 30000 nM.
In the case of `O=C1NCC(c2ccc(C(F)(F)F)cc2)C12CCN(C1(c3ccc(F)cc3)CCCCC1)CC2` (racemic), in test [1], the EC50 was determined as 433 nM.
The same measure, in the same setting: for `Cc1ccc(C2(N3CCC4(CC3)C(=O)NCC4c3ccc(F)cc3)CCCCC2)cc1` (single isomer, unassigned; diastereomer 2) the value was 419 nM; for `Cc1ccc(C2CNC(=O)C23CCN(C2(c4ccc(F)cc4)CCCCC2)CC3)cc1` (racemic), 73 nM.
Still for that read-out and setting: for `O=C1NCC(c2ccccc2)C12CCN(C1(c3ccc(OC(F)(F)F)cc3)CCCCC1)CC2` (racemic) the value was 4560 nM.
Turning to `O=C1NCC(c2ccc(F)cc2)C12CCN(C1(c3ccc(F)cc3)CCC1)CC2` (centres undefined), the EC50 in test [1] was over 30000 nM.
In turn, `Cc1ccc(C2CNC(=O)C23CCN(C2(c4ccccc4)CCCCC2)CC3)cc1` (racemic) returned an EC50 in test [1] of 139 nM.
Still for that read-out and setting: to `N#Cc1ccc(C2(N3CCC4(CC3)C(=O)NCC4c3ccccc3)CCCCC2)cc1` (single isomer, unassigned; diastereomer 1) belongs over 30000 nM.
As to `O=C1NCC(c2ccc(F)cc2)C12CCN(C1(c3ccsc3)CCCCC1)CC2` (single isomer, unassigned; diastereomer 1), it took 213 nM to reach a half-maximal effect in test [1] (EC50).
Turning to `O=C1NCC(c2ccccc2)C12CCN(C1(C3CCCC3)CCCCC1)CC2` (racemic), the response in test [1] was half-maximal at 6290 nM (EC50).
`O=C1NCC(c2ccc(F)cc2)C12CCN(C1(c3cccc(OC(F)(F)F)c3)CCCCC1)CC2` (stereo in doubt) gave an EC50 in test [1] of 16700 nM.
With `COc1cccc(C2(N3CCC4(CC3)C(=O)NCC4c3ccccc3)CCCCC2)c1` (single isomer, unassigned; diastereomer 2), in test [1], it took 26200 nM to reach a half-maximal effect (EC50).
Take `O=C1NCC(c2ccccc2)C12CCN(C1(c3cccc(F)c3)CCCCC1)CC2` (single isomer, unassigned; diastereomer 2): the EC50 in test [1] was 684 nM; in test [2], over 30000 nM.
The molecule `CCC1(N2CCC3(CC2)C(=O)NCC3c2ccc(F)cc2)CCCCC1` (racemic) yielded an EC50 in test [1] of 1470 nM.
Still for that read-out and setting: to `O=C1NCC(c2ccccc2)C12CCN(C1(c3ccc(C(F)(F)F)cc3)CCCCC1)CC2` (single isomer, unassigned; diastereomer 2) belongs 6970 nM.
`O=C1NCC(c2ccccc2)C12CCN(C1(c3ccc(C(F)(F)F)cc3)CCCCC1)CC2` (single isomer, unassigned; diastereomer 1): in test [1], the EC50 came to 1210 nM.
In test [2], `O=C1NCC(c2ccc(F)cc2)C12CCN(C1(c3ccc(F)cc3)CCCCC1)CC2` (racemic) returned an EC50 of over 30000 nM.
In the case of `O=C1NCC(c2ccccc2)C12CCN(C1(c3ccccc3)CCOCC1)CC2` (single isomer, unassigned; diastereomer 1), the EC50 in test [1] stood at 3660 nM.
Regarding `O=C1NCC(c2ccc(F)cc2)C12CCN(C1(C3CC3)CCCCC1)CC2` (racemic), the EC50 in test [1] was over 30000 nM.
`O=C1NCC(c2ccccc2)C12CCN(C1(c3ccccc3)CCCCC1)CC2` (single isomer, unassigned; diastereomer 1) returned an EC50 in test [2] of over 30000 nM.
Regarding `O=C1NCC(c2ccccc2)C12CCN(C1(c3cccs3)CCCCC1)CC2` (racemic), a half-maximal response in test [1] (EC50) required 147 nM.
As to `Cc1cccc(C2(N3CCC4(CC3)C(=O)NCC4c3ccc(F)cc3)CCCCC2)c1` (racemic), the EC50 in test [1] was 563 nM; in test [2], over 30000 nM.
For the molecule `N#Cc1ccc(C2(N3CCC4(CC3)C(=O)NCC4c3ccccc3)CCCCC2)cc1` (stereo in doubt), a half-maximal effect in test [1] (EC50) was put at 16000 nM.
In the case of `O=C1NCC(c2ccccc2)C12CCN(C1(c3cccc(F)c3)CCCCC1)CC2` (single isomer, unassigned; diastereomer 1), the results for the concentration for a half-maximal effect (EC50) in test [1] and in test [2] were 423 nM and over 30000 nM, respectively.
The molecule `O=C1NCC(c2ccccc2)C12CCN(C1(c3ccc(Cl)cc3)CCCCC1)CC2` (single isomer, unassigned; diastereomer 2) came in with an EC50 in test [2] of over 30000 nM.
In test [1], `N#Cc1cccc(C2(N3CCC4(CC3)C(=O)NCC4c3ccc(F)cc3)CCCCC2)c1` (racemic) yielded an EC50 of over 30000 nM.
Molecule `CCCC1CNC(=O)C12CCN(C1(c3ccc(C)s3)CCCCC1)CC2` (racemic) yielded an EC50 in test [1] of 113 nM.
Take `Cc1cccc(C2(N3CCC4(CC3)C(=O)NCC4c3ccc(F)cc3)CCCCC2)c1` (single isomer, unassigned; diastereomer 2): the EC50 in test [1] is 949 nM; in test [2] it was over 30000 nM.
`O=C1NCC(c2ccccc2)C12CCN(C1(c3ccccc3)CCOCC1)CC2` (stereo in doubt; form 1): it took 7290 nM to reach a half-maximal effect in test [1] (EC50).
Still for that read-out and setting: for `Cc1ccc(C2(N3CCC4(CC3)C(=O)NCC4c3ccc(F)cc3)CCCCC2)cc1` (single isomer, unassigned; diastereomer 1) the value was 1470 nM; for `O=C1NCC(c2ccc(F)cc2)C12CCN(C1(c3cccc(OC(F)(F)F)c3)CCCCC1)CC2` (single isomer, unassigned; diastereomer 2), 21500 nM.
In the case of `Cc1ccccc1C1(N2CCC3(CC2)C(=O)NCC3c2ccc(F)cc2)CCCCC1` (racemic), the concentration for a half-maximal effect (EC50) in test [1] is 350 nM; in test [2], over 30000 nM.
Consider `CCCC1CNC(=O)C12CCN(C1(c3cccs3)CCCCC1)CC2` (racemic), for which the EC50 in test [1] turned out to be 229 nM.
In test [1], `CC(C)C1(N2CCC3(CC2)C(=O)NCC3c2ccc(F)cc2)CCCCC1` (racemic) came in with an EC50 of 787 nM.
On the same count and under the same terms, to `COc1cccc(C2(N3CCC4(CC3)C(=O)NCC4c3ccccc3)CCCCC2)c1` (single isomer, unassigned; diastereomer 1) belongs 5610 nM.
With `Cc1ccc(C2(N3CCC4(CC3)C(=O)NCC4c3ccccc3)CCCCC2)cc1` (stereo in doubt), the EC50 in test [1] is 284 nM; in test [2] it was over 30000 nM.
In test [1], `Cc1cccc(C2(N3CCC4(CC3)C(=O)NCC4c3ccc(F)cc3)CCCCC2)c1` (single isomer, unassigned; diastereomer 1) came in with an EC50 of 4000 nM.
On to `O=C1NCC(c2ccccc2)C12CCN(C1(C3CCCCC3)CCCCC1)CC2` (racemic), for which the midpoint of the response in test [1], the EC50, lay at 15200 nM.
In test [1], `O=C1NCC(c2ccccc2)C12CCN(C1(c3ccsc3)CCCCC1)CC2` (racemic) displayed an EC50 of 682 nM.
`O=C1NCC(c2ccccc2)C12CCN(C1(C3CC3)CCCCC1)CC2` (racemic): the EC50 in test [1] was over 30000 nM.
Still for that read-out and setting: for `O=C1NCC(c2ccc(F)cc2)C12CCN(C1(c3ccsc3)CCCCC1)CC2` (stereo in doubt) the value was 99 nM.
For `O=C1NCC(c2ccccc2)C12CCN(C1(c3ccccc3)CCOCC1)CC2` (single isomer, unassigned; diastereomer 4), it took 525 nM to reach a half-maximal effect in test [1] (EC50).
In the case of `O=C1NCC(c2ccccc2)C12CCN(C1(c3ccc(Cl)cc3)CCCCC1)CC2` (single isomer, unassigned; diastereomer 1), the EC50 in test [2] is over 30000 nM.
As to `O=C1NCC(c2ccccc2)C12CCN(C1(c3ccccc3)CCCCC1)CC2` (single isomer, unassigned; diastereomer 2), the EC50 in test [2] was over 30000 nM.
Regarding `CC(C)=CC1(N2CCC3(CC2)C(=O)NCC3c2ccccc2)CCCCC1` (racemic), it took 979 nM to reach a half-maximal effect in test [1] (EC50).
